# Test results from patent publication US8163756B2 (priority 2004, dated 2012).
# Molecular target: B-Raf(V599E) kinase (Homo sapiens, UniProt P15056, V600E)
# Assay: B-Raf(V599E) kinase assay B1 (construct 1, MEK1 substrate, coupled spectrophotometric)
# Assay type: biochemical
# Conditions: not given
# Protocol: The test compounds were incubated with the reaction mixtureat 30° C. for 2 h. […] The reaction rate was calculated using the […] time frame. […] IC50 values were calculated from a series of percent inhibition values determined at a range of inhibitor concentrations using software routines as implemented in the GraphPad Prism software package.
# B-Raf(V599E) kinase, sequence (P15056 with tags, fused parts or gaps V600E): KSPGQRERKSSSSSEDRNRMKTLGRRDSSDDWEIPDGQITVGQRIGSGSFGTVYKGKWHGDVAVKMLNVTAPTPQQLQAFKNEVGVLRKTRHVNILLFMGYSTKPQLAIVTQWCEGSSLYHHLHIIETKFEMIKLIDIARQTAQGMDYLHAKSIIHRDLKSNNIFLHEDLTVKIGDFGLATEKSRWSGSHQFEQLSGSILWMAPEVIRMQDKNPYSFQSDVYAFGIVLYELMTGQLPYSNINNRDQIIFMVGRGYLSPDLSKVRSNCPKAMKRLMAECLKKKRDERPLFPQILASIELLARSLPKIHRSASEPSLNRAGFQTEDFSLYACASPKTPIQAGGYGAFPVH
row,Compound,IC50
1,"CC(C)(C)c1cc(NC(=O)Nc2ccc3c(c2)OCO3)n(-c2cccc(CCN)c2)n1 [Example 253, 1-{1-[3-(2-aminoethyl)phenyl]-3-t-butyl-1 H-pyrazol-5-yl}-3-(benzo[d][1,3]dioxol-5-yl)urea]",0.075 µM
2,"CC(C)(C)c1cc(NC(=O)Nc2cc(F)cc(F)c2)n(-c2ccc3c(c2)CCC(=O)N3)n1 [Example 326, 1-(3-t-butyl-1-(2-oxo-1,2,3,4-tetrahydro-quinolin-6-yl)-1H-pyrazol-5-yl)-3-(3,5-difluorophenyl)urea]",0.017 µM
3,"CC(C)(C)c1cc(NC(=O)Nc2ccc3c(c2)OCO3)n(-c2cccc(CC(=O)O)c2)n1 [Example 372, 2-(3-{5-[3-(benzo[1,3]dioxol-5-yl)ureido]-3-t-butyl-1H-pyrazol-1-yl}phenyl)acetic acid]",0.027 µM
4,"CC(C)(C)c1cc(NC(=O)Nc2cc(F)c(F)cc2F)n(-c2ccc3c(c2)CCC(=O)N3)n1 [Example 323, 1-(3-t-butyl-1-(2-oxo-1,2,3,4-tetrahydro-quinolin-6-yl)-1H-pyrazol-5-yl)-3-(2,4,5-trifluorophenyl)urea]",0.0034 µM
5,"CC(C)(C)c1cc(NC(=O)NC2CCCCC2)n(-c2cccc(CC(N)=O)c2)n1 [Example 391, 1-{1-[3-(2-amino-2-oxoethyl)phenyl]-3-t-butyl-1H-pyrazol-5-yl}-3-cyclohexylurea]",0.037 µM
6,"CC(C)(C)c1cc(NC(=O)Nc2ccccc2F)n(-c2cc(CO)c3ccccc3c2)n1 [Example 291, 1-(3-t-butyl-1-(4-(hydroxymethyl)naphthalen-2-yl)-1H-pyrazol-5-yl)-3-(2-fluorophenyl)urea]",0.0053 µM
7,"CC(C)(C)c1cc(NC(=O)Nc2ccc3c(c2)OCO3)n(-c2cccc(CO)c2)n1 [Example 221, 1-(benzo[d][1,3]dioxol-5-yl)-3-(3-t-butyl-1-(3-(hydroxymethyl)phenyl)-1H-pyrazol-5-yl)urea]",0.088 µM
8,"COc1cccc(-n2nc(C(C)(C)C)cc2NC(=O)Nc2ccc(F)cc2)c1 [Example 230, 1-(3-t-butyl-1-(3-methoxyphenyl)-1H-pyrazol-5-yl)-3-(4-fluorophenyl)urea]",0.052 µM
9,"CC(C)(C)c1ncc(NC(=O)Nc2cccc(Oc3ccccc3)c2)c(-c2ccccc2)n1 [Example 280, 1-(2-t-butyl-4-phenylpyrimidin-5-yl)-3-(3-phenoxyphenyl)urea]",0.275 µM
10,"CC(C)(C)c1cc(NC(=O)Nc2ccc(F)c(F)c2F)n(-c2ccc3c(c2)CCC(=O)N3)n1 [Example 322, 1-(3-t-butyl-1-(2-oxo-1,2,3,4-tetrahydro-quinolin-6-yl)-1H-pyrazol-5-yl)-3-(2,3,4-trifluorophenyl)urea]",0.0041 µM
11,"C[C@H](NC(=O)Nc1cc(C(C)(C)C)nn1-c1cccc(C#N)c1)c1ccccc1 [Example 211, 1-[3-t-butyl-1-(3-cyanophenyl)-1H-pyrazol-5-yl]-3-((S)-1-phenylethyl)urea]",0.785 µM
12,"CC(C)(C)c1cc(NC(=O)Nc2ccccc2F)n(-c2ccc3c(c2)C(=O)NCC3)n1 [Example 312, 1-(3-t-butyl-1-(1-oxo-1,2,3,4-tetrahydroiso-quinolin-7-yl)-1H-pyrazol-5-yl)-3-(2-fluorophenyl)urea]",0.035 µM
13,"CC(C)(C)c1cc(NC(=O)Nc2ccccc2F)n(-c2cccc(CC(=O)O)c2)n1 [Example 371, 2-(3-(3-t-butyl-5-(3-(2-fluorophenyl)-ureido)-1H-pyrazol-1-yl)phenyl)acetic acid]",0.01 µM
14,"CC(C)NCCc1cccc(-n2nc(C(C)(C)C)cc2NC(=O)Nc2cccc(Cl)c2Cl)c1 [Example 259, 1-(3-t-butyl-1-(3-(2-(isopropylamino)ethyl)phenyl)-1H-pyrazol-5-yl)-3-(2,3-dichlorophenyl)urea]",0.0083 µM
15,"CC(C)(C)c1cc(NC(=O)Nc2ccccc2)n(-c2cc(CC(N)=O)c3ccccc3c2)n1 [Example 88, 1-(1-(4-(2-amino-2-oxoethyl)naphthalen-2-yl)-3-t-butyl-1H-pyrazol-5-yl)-3-phenylurea]",0.012 µM
16,"CC(C)(C)c1cc(NC(=O)Nc2ccccc2F)n(-c2cc(CC(N)=O)c3ccccc3c2)n1 [Example 89, 1-(1-(4-(2-amino-2-oxoethyl)naphthalen-2-yl)-3-t-butyl-1H-pyrazol-5-yl)-3-(2-fluorophenyl)urea]",0.0055 µM
17,"CC(C)(C)c1cc(NC(=O)Nc2ccccc2F)n(-c2cccc(CC(N)=O)c2)n1 [Example 393, 1-{1-[3-(2-amino-2-oxoethyl)phenyl]-3-t-butyl-1H-pyrazol-5-yl}-3-(2-fluorophenyl)urea]",0.02 µM
18,CC(C)(C)c1cc(NC(=O)Nc2cccc(F)c2F)n(-c2cc(CO)c3ccccc3c2)n1 [Example 294],0.0033 µM
19,"CC(C)(C)c1cc(NC(=O)Nc2ccc(F)cc2F)n(-c2cccc(CC(=O)O)c2)n1 [Example 369, 2-(3-(3-t-butyl-5-(3-(2,4-difluorophenyl)-ureido)-1H-pyrazol-1-yl)phenyl)acetic acid]",0.015 µM
20,CC(C)(C)c1cc(NC(=O)Nc2ccc(F)cc2)n(-c2cc(CO)c3ccccc3c2)n1 [Example 293],0.007 µM
21,"CC(C)(C)c1cc(NC(=O)Nc2cccc(Cl)c2Cl)n(-c2cc(CCO)c3ccccc3c2)n1 [Example 303, 1-{5-t-butyl-2-[4-(2-hydroxyethyl)naphthalen-2-yl]-2H-pyrazol-3-yl}-3-(2,3-dichlorophenyl)urea]",0.0043 µM
22,"CC(C)(C)c1cc(NC(=O)Nc2ccc(Cl)cc2)n(-c2cccc(CCN)c2)n1 [Example 255, 1-{1-[3-(2-aminoethyl)phenyl]-3-t-butyl-1H-pyrazol-5-yl}-3-(4-chlorophenyl)urea]",0.086 µM
23,"CC(C)(C)c1cc(NC(=O)Nc2cccc(F)c2)n(-c2ccc3c(c2)CCN3)n1 [Example 306, 1-(3-t-butyl-1-(indolin-5-yl)-1H-pyrazol-5-yl)-3-(3-fluorophenyl)urea]",0.036 µM
24,"CCOC(=O)Cc1cccc(-n2nc(C(C)(C)C)cc2NC(=O)Nc2ccc3c(c2)OCO3)c1 [Example 247, ethyl 2-(3-{5-[3-(benzo[d][1,3]dioxol-5-yl)ureido]-3-t-butyl-1H-pyrazol-1-yl}phenyl)-acetate]",0.07 µM
25,"CC(C)NC(=O)Cc1cccc(-n2nc(C(C)(C)C)cc2NC(=O)Nc2cccc(Cl)c2Cl)c1 [Example 441, 1-(3-t-butyl-1-(3-(2-(isopropylamino)-2-oxoethyl)phenyl)-1H-pyrazol-5-yl)-3-(2,3-dichlorophenyl)urea]",0.0064 µM

# Same assay, conditions: Method B1; read-out: B-Raf Data
row,Compound,IC50
1,"CC(C)(C)c1cc(NC(=O)Nc2cccc(-c3cnccn3)c2)n(-c2cccc(CC(N)=O)c2)n1 [Example 437, 1-(1-(3-(2-amino-2-oxoethyl)phenyl)-3-t-butyl-1H-pyrazol-5-yl)-3-(3-(pyrazin-2-yl)phenyl)urea]",0.279 µM
2,"CC(C)(C)c1cc(NC(=O)Nc2ccc(F)c(F)c2F)n(-c2cccc(CC(N)=O)c2)n1 [Example 435, 1-(1-(3-(2-amino-2-oxoethyl)phenyl)-3-t-butyl-1H-pyrazol 5-yl)-3-(2,3,4-trifluorophenyl)urea]",0.0073 µM
3,"O=C(O)Cc1cccc(-n2nc(C3CCCC3)cc2NC(=O)Nc2cccc(Cl)c2Cl)c1 [Example 368, 2-(3-(3-cyclopentyl-5-(3-(2,3-dichlorophenyl)-ureido)-1H-pyrazol-1-yl)phenyl)acetic acid]",0.0062 µM
4,"CC(C)(C)c1cc(NC(=O)Nc2cc(F)c(F)cc2F)n(-c2cccc(CC(N)=O)c2)n1 [Example 434, 1-(1-(3-(2-amino-2-oxoethyl)phenyl)-3-t-butyl-1H-pyrazol-5-yl)-3-(2,4,5-trifluorophenyl)urea]",0.0067 µM
